{
  "source": "patent US20210093551A1",
  "about": "“Methods Of Use Of Oral Care Compositions Comprising Hops” (The Procter & Gamble Company, priority 2019, published 2021)",
  "tested_on": "plaque biofilm grown from fresh pooled human saliva",
  "experiment": "in vitro plaque glycolysis model (iPGRM): acid production and glycolysis inhibition after treatment of 3-day biofilm",
  "type": "cell-based, plaque microorganisms from human saliva",
  "experimental": "Acid production and acid inhibition were determined with the in vitro plaque glycolysis model (iPGRM). The purpose of this technique is to provide a simple and quick method for determining if compounds have an influence on the metabolic pathways that plaque microorganisms utilize to produce toxins that adversely affect gingival health.\nThe in vitro plaque glycolysis model (iPGRM) is a technique in which plaque is grown from human saliva and treated with various agents to determine anti-glycolytic activity of treatments. When bacteria convert sugar into energy with the help of enzymes, acids are formed. These acids demineralize and damage the dental enamel. The purpose of this technique is to provide a simple and quick method for determining if treatment compounds have an inhibitory effect on the metabolic pathways that plaque microorganisms utilize for the production of acids or toxins and/or inhibit their growth. […]\n[…] The pH of the media solutions was then measured to determine the amount of glycolysis inhibition relative to a negative control.\nOn Day 1, new glass rods (5 mm×90 mm) were polished approximately 25 mm from the un-tapered end on a lathe with silicon carbide paper of 240, 320, 400, and 600 grit used sequentially. […] After polishing, rods were stored until ready to run test. […]",
  "data": [
    {"smiles": "[H]/N=C(\\N/C(=N/[H])NCCCCCCNC(=N)NC(=N)Nc1ccc(Cl)cc1)Nc1ccc(Cl)cc1", "note": "[1% Chlorhexidine, Chlorhexidine]", "values": [
      {"measurement": "Mean Acid Inhibition (%) Mean", "setting": "2 min treatment (1:5 in water), glycolysis inhibition relative to negative control (Crest Cavity Protection)", "result": 75.12, "unit": "%"},
      {"measurement": "Acid Production (ΔpH) Mean", "setting": "2 min treatment with dentifrice slurry or diluted treatment in water (1:5), ΔpH versus blank vials", "result": "0.4 ΔpH"}
    ]}
  ]
}
